The text below walks through data of US10858362B2, “Imidazopyrazinones as PDE1 inhibitors” (H. Lundbeck A/S, priority 2015, dated 2020).

Type in all cases: biochemical
One test has as its target PDE1A (Homo sapiens (Human), UniProt P54750). The experiment in a line: PDE1 inhibition assay, PDE1A. To be noted: for IC50: 15 nM tritium labelled cAMP; for inhibition at 1 µM: read-out: PDE1A, % inhibition (at 1 μM); for percent inhibition of PDE1A at 2 µM: % sign not given. How it is done:
Reactions were initiated by addition of the cyclic nucleotide substrate, and reactions were allowed to proceed for 1 h at room temperature before being terminated through mixing with 20 μL (0.2 mg) yttrium silicate SPA beads (PerkinElmer).

Another test addresses PDE1B (Homo sapiens (Human), UniProt Q01064). The experiment in a line: PDE1 inhibition assay, PDE1B. The note with it: for IC50: 15 nM tritium labelled cAMP; for inhibition at 1 µM: read-out: PDE1B, % inhibition (at 1 μM). The method, then:
(§1) Reactions were initiated by addition of the cyclic nucleotide substrate, and reactions were allowed to proceed for 1 h at room temperature before being terminated through mixing with 20 μL (0.2 mg) yttrium silicate SPA beads (PerkinElmer). The beads were allowed to settle for 1 h in the dark before the plates were counted in a Wallac 1450 Microbeta counter.

A further test addresses PDE1C (Homo sapiens (Human), UniProt Q14123). The experiment in a line: PDE1 inhibition assay, PDE1C. To be noted: for IC50: 15 nM tritium labelled cAMP; for inhibition at 1 µM: read-out: PDE1C, % inhibition (at 1 μM). How it is done:
as §1

The next test addresses PDE9 (Homo sapiens (Human), UniProt O76083). The experiment in a line: PDE9 inhibition assay. The method, then:
A PDE9 assay may for example, be performed as follows: The assay is performed in 60 μL samples containing a fixed amount of the relevant PDE enzyme (sufficient to convert 20-25% of the cyclic nucleotide substrate), a buffer (50 mM HEPES7.6; 10 mM MgCl2; 0.02% Tween20), 0.1 mg/ml BSA, 225 pCi of ^3H-labelled cyclic nucleotide substrate, tritium labeled cAMP to a final concentration of 5 nM and varying amounts of inhibitors. Reactions are initiated by addition of the cyclic nucleotide substrate, and reactions are allowed to proceed for one hr at room temperature before being terminated through mixing with 15 μL 8 mg/mL yttrium silicate SPA beads (Amersham). The beads are allowed to settle for one hr in the dark before the plates are counted in a Wallac 1450 Microbeta counter.
In the context of the present invention the assay was performed in 60 μL assay buffer (50 mM HEPES pH 7.6; 10 mM MgCl2; 0.02% Tween20) containing enough PDE9 to convert 20-25% of 10 nM ^3H-cAMP and varying amounts of inhibitors. Following a 1 hr incubation the reactions were terminated by addition of 15 μL 8 mg/mL yttrium silicate SPA beads (Amersham). The beads were allowed to settle for one hr in the dark before the plates were counted in a Wallac 1450 Microbeta counter.

PDE1A, sequence (P54750 whole entry): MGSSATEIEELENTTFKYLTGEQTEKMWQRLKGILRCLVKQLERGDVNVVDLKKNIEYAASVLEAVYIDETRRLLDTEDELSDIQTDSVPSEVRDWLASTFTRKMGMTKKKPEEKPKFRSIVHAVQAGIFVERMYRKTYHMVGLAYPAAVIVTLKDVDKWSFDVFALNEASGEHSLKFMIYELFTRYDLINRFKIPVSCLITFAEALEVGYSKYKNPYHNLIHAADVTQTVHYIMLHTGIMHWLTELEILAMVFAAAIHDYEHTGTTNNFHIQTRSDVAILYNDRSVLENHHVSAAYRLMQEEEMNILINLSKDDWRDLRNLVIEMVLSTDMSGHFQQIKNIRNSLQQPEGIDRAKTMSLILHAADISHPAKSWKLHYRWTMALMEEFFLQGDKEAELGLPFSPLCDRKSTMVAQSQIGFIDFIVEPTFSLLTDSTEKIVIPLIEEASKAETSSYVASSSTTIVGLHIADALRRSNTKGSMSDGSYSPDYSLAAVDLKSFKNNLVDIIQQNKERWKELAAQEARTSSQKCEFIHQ
PDE9, sequence (O76083 whole entry): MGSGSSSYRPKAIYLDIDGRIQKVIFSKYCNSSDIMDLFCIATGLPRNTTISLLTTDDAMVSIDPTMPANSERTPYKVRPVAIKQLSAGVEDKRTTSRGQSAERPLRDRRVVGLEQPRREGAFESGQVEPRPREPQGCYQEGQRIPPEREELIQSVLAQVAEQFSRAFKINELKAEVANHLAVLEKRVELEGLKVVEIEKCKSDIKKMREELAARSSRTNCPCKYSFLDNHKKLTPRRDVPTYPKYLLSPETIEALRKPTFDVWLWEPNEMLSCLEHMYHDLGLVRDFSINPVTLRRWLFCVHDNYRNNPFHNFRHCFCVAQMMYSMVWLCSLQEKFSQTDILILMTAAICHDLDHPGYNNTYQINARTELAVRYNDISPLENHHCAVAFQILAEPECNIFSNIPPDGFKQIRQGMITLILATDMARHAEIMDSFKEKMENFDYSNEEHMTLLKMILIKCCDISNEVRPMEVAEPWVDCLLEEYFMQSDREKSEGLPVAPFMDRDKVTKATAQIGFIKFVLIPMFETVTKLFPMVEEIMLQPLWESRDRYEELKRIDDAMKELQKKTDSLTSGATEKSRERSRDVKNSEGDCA
PDE1B, sequence (Q01064 whole entry): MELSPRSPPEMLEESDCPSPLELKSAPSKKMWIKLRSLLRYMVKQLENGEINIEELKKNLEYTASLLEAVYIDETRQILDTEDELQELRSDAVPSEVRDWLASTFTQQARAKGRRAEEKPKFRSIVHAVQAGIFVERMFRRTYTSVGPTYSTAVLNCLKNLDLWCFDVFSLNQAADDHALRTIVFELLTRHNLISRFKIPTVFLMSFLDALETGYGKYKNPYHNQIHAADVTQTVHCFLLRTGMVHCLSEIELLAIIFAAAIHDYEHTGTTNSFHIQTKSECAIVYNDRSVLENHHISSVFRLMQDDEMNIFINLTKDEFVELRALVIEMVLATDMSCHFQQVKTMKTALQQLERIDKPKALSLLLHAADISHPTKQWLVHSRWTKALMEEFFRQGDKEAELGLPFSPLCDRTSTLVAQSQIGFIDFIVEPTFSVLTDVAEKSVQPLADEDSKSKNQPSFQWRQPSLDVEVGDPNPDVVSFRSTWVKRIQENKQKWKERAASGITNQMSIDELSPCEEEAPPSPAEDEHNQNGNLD
PDE1C, sequence (Q14123 whole entry): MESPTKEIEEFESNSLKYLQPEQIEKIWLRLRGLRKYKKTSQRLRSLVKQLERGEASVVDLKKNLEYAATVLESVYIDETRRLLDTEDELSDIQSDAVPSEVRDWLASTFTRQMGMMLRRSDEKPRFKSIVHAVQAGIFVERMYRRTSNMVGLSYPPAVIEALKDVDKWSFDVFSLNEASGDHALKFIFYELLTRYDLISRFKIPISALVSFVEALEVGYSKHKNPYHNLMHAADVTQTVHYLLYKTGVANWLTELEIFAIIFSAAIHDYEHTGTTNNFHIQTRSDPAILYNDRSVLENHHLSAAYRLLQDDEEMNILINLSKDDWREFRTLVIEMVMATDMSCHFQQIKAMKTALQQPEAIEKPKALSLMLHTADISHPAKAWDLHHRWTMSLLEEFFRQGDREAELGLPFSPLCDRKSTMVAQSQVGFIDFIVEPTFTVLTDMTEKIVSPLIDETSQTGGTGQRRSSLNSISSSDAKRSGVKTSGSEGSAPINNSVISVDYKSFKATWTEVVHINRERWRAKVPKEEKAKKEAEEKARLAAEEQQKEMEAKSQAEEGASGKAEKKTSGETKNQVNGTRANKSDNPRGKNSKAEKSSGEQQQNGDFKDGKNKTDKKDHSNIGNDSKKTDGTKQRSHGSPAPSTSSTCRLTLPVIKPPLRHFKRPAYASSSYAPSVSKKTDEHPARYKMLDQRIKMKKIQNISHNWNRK

By IC50 is commonly meant the point on the concentration scale where inhibition reaches its midpoint. A word on the inhibition: it is the relative decrease from the control value, in per cent. On to `Cc1ccccc1Cn1c(C)cn2c(C3CCOCC3)ncc2c1=O` [Example 21, 6-Methyl-7-(2-methylbenzyl)-3-(tetrahydro-2H-pyran-4-yl)imidazo[1,5-a]pyrazin-8(7H)-one], for which the IC50 came to 242 nM against PDE1A, 195 nM at PDE1B and 30 nM on PDE1C. In addition, the inhibition at 10 µM against PDE9 is -14%.
The corresponding values for `Cc1ccc(Cn2c(C)cn3c(C4CCOCC4)ncc3c2=O)cc1` [Example 22, 6-Methyl-7-(4-methylbenzyl)-3-(tetrahydro-2H-pyran-4-yl)imidazo[1,5-a]pyrazin-8(7H)-one] are 75 nM, 28 nM, 67 nM and 50%.
The corresponding values for `COc1ccc(Cn2c(C)cn3c(C4CCOCC4)ncc3c2=O)cc1` [Example 23, 7-(4-Methoxybenzyl)-6-methyl-3-(tetrahydro-2H-pyran-4-yl)imidazo[1,5-a]pyrazin-8(7H)-one] are 14 nM, 12 nM, 19 nM and 16%.
The corresponding values for `Cc1cn2c(C3CCOCC3)ncc2c(=O)n1Cc1ccc(F)cc1` [Example 24, 7-(4-Fluorobenzyl)-6-methyl-3-(tetrahydro-2H-pyran-4-yl)imidazo[1,5-a]pyrazin-8(7H)-one] are 38 nM, 43 nM, 17 nM and -1%.
With `Cc1cccc(Cn2c(C)cn3c(C4CCOCC4)ncc3c2=O)c1` [Example 25, 6-Methyl-7-(3-methylbenzyl)-3-(tetrahydro-2H-pyran-4-yl)imidazo[1,5-a]pyrazin-8(7H)-one], the IC50 came to 63 nM against PDE1A, 57 nM at PDE1B and 9 nM against PDE1C. Moreover, the inhibition at 10 µM against PDE9 was -42%.
The corresponding values for `Cc1cn2c(C3(C)CCOCC3)ncc2c(=O)n1Cc1cccc(F)c1` [Example 26, 7-(3-fluorobenzyl)-6-methyl-3-(4-methyltetrahydro-2H-pyran-4-yl)imidazo[1,5-a]pyrazin-8(7H)-one] are 234 nM, 218 nM, 47 nM and -2%.
The corresponding values for `Cc1cn2c(C3(C#N)CCOCC3)ncc2c(=O)n1Cc1cccc(F)c1` [Example 27, 4-(7-(3-fluorobenzyl)-6-methyl-8-oxo-7,8-dihydroimidazo[1,5-a]pyrazin-3-yl)tetrahydro-2H-pyran-4-carbonitrile] are 603 nM, 699 nM, 103 nM and 5%.
The corresponding values for `COC1(c2ncc3c(=O)n(Cc4cccc(F)c4)c(C)cn23)CCOCC1` [Example 28, 7-(3-fluorobenzyl)-3-(4-methoxytetrahydro-2H-pyran-4-yl)-6-methylimidazo[1,5-a]pyrazin-8(7H)-one] are 663 nM, 737 nM, 72 nM and 13%.
As for `Cc1cn2c(C3(F)CCOCC3)ncc2c(=O)n1Cc1cccc(F)c1` [Example 29, 7-(3-fluorobenzyl)-3-(4-fluorotetrahydro-2H-pyran-4-yl)-6-methylimidazo[1,5-a]pyrazin-8(7H)-one], the IC50 was 493 nM against PDE1A, 249 nM against PDE1B and 50 nM at PDE1C. Besides, the inhibition at 10 µM against PDE9 turned out to be 16%.
The corresponding values for `Cc1cn2c(C3(C)CC3)ncc2c(=O)n1Cc1cccc(F)c1` [Example 33, 7-(3-fluorobenzyl)-6-methyl-3-(1-methylcyclopropyl)imidazo[1,5-a]pyrazin-8(7H)-one] are 94 nM, 52 nM, 7 nM and -2%.
The corresponding values for `Cc1cn2c(C3CC3(F)F)ncc2c(=O)n1Cc1cccc(F)c1` (stereo not shown) [Example 34, 3-(2,2-difluorocyclopropyl)-7-(3-fluorobenzyl)-6-methylimidazo[1,5-a]pyrazin-8(7H)-one] are 331 nM, 359 nM, 93 nM and 0%.
Turning to `Cc1cn2c(C3CCOCC3)ncc2c(=O)n1Cc1ccc(OC2CC2)cc1` [Example 39, 7-(4-cyclopropoxybenzyl)-6-methyl-3-(tetrahydro-2H-pyran-4-yl)imidazo[1,5-a]pyrazin-8(7H)-one], the half-maximal inhibitory concentration (IC50) on PDE1A came out at 413 nM; at PDE1B, 118 nM; on PDE1C it was 364 nM. On PDE9, the inhibition at 10 µM came out at 23%.
As for `Cc1cn2c(C3CCOCC3)ncc2c(=O)n1Cc1ccc(OC(F)F)cc1` [Example 40, 7-(4-(difluoromethoxy)benzyl)-6-methyl-3-(tetrahydro-2H-pyran-4-yl)imidazo[1,5-a]pyrazin-8(7H)-one], the IC50 against PDE1A was 73 nM; against PDE1B it was 27 nM; against PDE1C it was 52 nM. Also, on PDE9, the inhibition at 10 µM is -25%.
The corresponding values for `Cc1cn2c(C3CCOCC3)ncc2c(=O)n1Cc1ccc(OC(F)(F)F)cc1` [Example 41, 6-methyl-3-(tetrahydro-2H-pyran-4-yl)-7-(4-(trifluoromethoxy)benzyl)imidazo[1,5-a]pyrazin-8(7H)-one] are 27 nM, 18 nM, 52 nM and -22%.
`Cc1cn2c(C3CCOCC3)ncc2c(=O)n1Cc1ccc(OCC2CC2)cc1` [Example 42, 7-(4-(cyclopropylmethoxy)benzyl)-6-methyl-3-(tetrahydro-2H-pyran-4-yl)imidazo[1,5-a]pyrazin-8(7H)-one]: the figures for the inhibition at 1 µM on PDE1A and on PDE1C were 50% and 55%, respectively. In addition, the half-inhibitory concentration (IC50) against PDE1B was 155 nM. Also, the inhibition at 10 µM against PDE9 was 15%.
Regarding `CCc1cn2c(C3CCOCC3)ncc2c(=O)n1Cc1ccccc1` [Example 43, 7-benzyl-6-ethyl-3-(tetrahydro-2H-pyran-4-yl)imidazo[1,5-a]pyrazin-8(7H)-one], the 50% inhibitory concentration (IC50) is 105 nM on PDE1A, 32 nM on PDE1B and 9 nM on PDE1C. Moreover, the inhibition at 10 µM against PDE9 stood at 6%.
The corresponding values for `CCc1cn2c(C3CCOCC3)ncc2c(=O)n1Cc1ccc(OC)cc1` [Example 44, 6-ethyl-7-(4-methoxybenzyl)-3-(tetrahydro-2H-pyran-4-yl)imidazo[1,5-a]pyrazin-8(7H)-one] are 40 nM, 5 nM, 16 nM and 18%.
With `Cc1cn2c(C3CCOCC3)ncc2c(=O)n1Cc1cccc(C#N)c1` [Example 45, 3-((6-methyl-8-oxo-3-(tetrahydro-2H-pyran-4-yl)imidazo[1,5-a]pyrazin-7(8H)-yl)methyl)benzonitrile], the “percent inhibition of PDE1A at 2 µM” value on PDE1A is 64. Moreover, the inhibition at 1 µM at PDE1B turned out to be 54%. In addition, the IC50 against PDE1C turned out to be 149 nM. Also, the inhibition at 10 µM against PDE9 was 6%.
At PDE1A, `Cc1cn2c(C3CCOCC3)ncc2c(=O)n1Cc1ccc(C#N)cc1` [Example 46, 4-((6-methyl-8-oxo-3-(tetrahydro-2H-pyran-4-yl)imidazo[1,5-a]pyrazin-7(8H)-yl)methyl)benzonitrile] had an IC50 of 809 nM. In addition, the inhibition at 1 µM on PDE1B is 58%; at PDE1C it was 9%. Also, the inhibition at 10 µM against PDE9 amounted to 14%.
On to `CC(=O)Nc1ccc(Cn2c(C)cn3c(C4CCOCC4)ncc3c2=O)cc1` [Example 47, N-(4-((6-methyl-8-oxo-3-(tetrahydro-2H-pyran-4-yl)imidazo[1,5-a]pyrazin-7(8H)-yl)methyl)phenyl)acetamide], for which the inhibition at 1 µM at PDE1A amounted to 0%; on PDE1C, 10%. The compound also displayed an IC50 against PDE1B of 388 nM. In addition, the inhibition at 10 µM against PDE9 is 10%.
In the case of `CCc1ccccc1Cn1c(C)cn2c(C3CCOCC3)ncc2c1=O` [Example 49, 7-(2-ethylbenzyl)-6-methyl-3-(tetrahydro-2H-pyran-4-yl)imidazo[1,5-a]pyrazin-8(7H)-one], the “percent inhibition of PDE1A at 2 µM” value on PDE1A is listed as 44. The inhibition at 1 µM on PDE1B came out at 60%. The IC50 against PDE1C turned out to be 173 nM. Moreover, the inhibition at 10 µM at PDE9 is 1%.
As for `Cc1cn2c(C3CCOCC3)ncc2c(=O)n1Cc1ccc2c(c1)OCO2` [Example 50, 7-(benzo[d][1,3]dioxol-5-ylmethyl)-6-methyl-3-(tetrahydro-2H-pyran-4-yl)imidazo[1,5-a]pyrazin-8(7H)-one], the half-maximal inhibitory concentration (IC50) on PDE1A worked out at 50 nM; against PDE1B it was 16 nM; at PDE1C it was 38 nM. The inhibition at 10 µM against PDE9 was 12%.
